This assay deals with human ENTPD2 engineered B16LM3 clone B5. Kind of assay: Human ENTPD2 engineered B16LM3 clone B5 model, combination with A2AR antagonist NIR178. Type of assay: in vivo. Conditions: NIR178 50 or 200 mg/kg p.o. 4 days on, 3 days off, combined with non-specific isotype control. The procedure:
Human ENTPD2-engineered B16LM3 clone B5 was established in female C57BL/6 mice by subcutaneous injection of 0.5×10^6 cells into the right flank of each mouse. Once tumors reached approximately 50 mm^3, mice were randomized according to tumor volume into treatment groups (n=8 per group). Mice received an intravenous (i.v.) treatment of either anti-ENTPD2 mAb1 at a final dose of 10/mg/kg or a non-specific human IgG1 isotype control 10 mg/kg on day 1 of study. NIR178 was administered per os (p.o.) for 4 days on and 3 days off, starting at the beginning of study at either 50 mg/kg or 200 mg/kg. All doses were adjusted to individual mouse body weights. The study was carried out for thirteen days post treatment initiation and tumor volumes were assessed every other day to assess efficacy.

Structures are written as SMILES.

Consider `Nc1nc(-n2cccn2)nc(-n2cccn2)c1Br` [NIR178, 5-bromo-2,6-di-(1H-pyrazol-1-yl)pyrimidine-4-amine, reference compound], for which the anti-tumor efficacy result is “No significant anti-tumor efficacy”.

The record behind these values is US20220348651A1, “ENTPD2 ANTIBODIES, COMBINATION THERAPIES, AND METHODS OF USING THE ANTIBODIES AND COMBINATION THERAPIES” (Novartis AG, priority 2019, published 2022).
